Patent US20220298146A1, “HETEROCYCLIC DERIVATIVE AND USE THEREOF” (Transthera Sciences (Nanjing), Inc., priority 2019, published 2022)

What was measured:
Axl (h) = target: T1, Axl (h) (Homo sapiens, UniProt P30530); assay: Enzymatic activity assay, Axl (h) kinase, [γ-33P]-ATP; type: biochemical; settings: 10 μM [γ-33P]-ATP, 40 min, room temperature; read-out: Inhibitory Activity on Ax1 (h), IC50
T1 construct: purchased
T1 sequence (P30530 26-894): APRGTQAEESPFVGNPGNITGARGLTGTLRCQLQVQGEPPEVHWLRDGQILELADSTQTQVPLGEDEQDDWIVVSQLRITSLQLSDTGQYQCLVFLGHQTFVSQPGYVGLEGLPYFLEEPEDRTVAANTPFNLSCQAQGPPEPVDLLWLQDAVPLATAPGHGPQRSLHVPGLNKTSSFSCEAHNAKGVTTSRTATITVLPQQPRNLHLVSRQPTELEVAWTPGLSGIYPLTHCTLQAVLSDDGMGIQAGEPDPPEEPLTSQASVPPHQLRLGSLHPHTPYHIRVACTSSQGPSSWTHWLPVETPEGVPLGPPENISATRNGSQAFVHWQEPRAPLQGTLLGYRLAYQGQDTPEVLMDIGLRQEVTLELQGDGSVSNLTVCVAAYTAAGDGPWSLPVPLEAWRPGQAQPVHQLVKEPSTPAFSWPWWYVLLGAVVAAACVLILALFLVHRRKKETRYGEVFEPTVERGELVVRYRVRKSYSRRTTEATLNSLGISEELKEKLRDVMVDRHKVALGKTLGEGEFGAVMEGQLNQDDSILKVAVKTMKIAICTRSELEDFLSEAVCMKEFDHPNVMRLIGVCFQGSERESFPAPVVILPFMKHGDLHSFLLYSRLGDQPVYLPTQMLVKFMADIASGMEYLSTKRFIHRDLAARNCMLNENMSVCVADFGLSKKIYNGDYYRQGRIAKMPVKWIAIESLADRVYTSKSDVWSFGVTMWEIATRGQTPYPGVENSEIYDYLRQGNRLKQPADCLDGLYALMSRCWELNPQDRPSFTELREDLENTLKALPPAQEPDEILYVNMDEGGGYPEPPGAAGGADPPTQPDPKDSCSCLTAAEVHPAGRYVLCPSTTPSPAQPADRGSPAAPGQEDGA
Description: (§1) Test samples: the compounds of the present invention, having structures and preparation methods shown above.
(§2) (1) Preparation of Compound Stock Solutions
(§3) Compounds were each dissolved in 100% DMSO to prepare stock solutions with a maximum concentration of 500 μM.
(§4) (2) Preparation of Compound Working Solutions
(§5) The compound stock solutions were diluted to final concentrations of 500 μM, 150 μM, 50 μM, 15 μM, 5 μM, 1.5 μM, 0.5 μM, 0.15 μM and 0.05 μM to prepare compound working solutions (50×).
(§6) (3) Preparation of different enzymatic reaction solutions
Axl (h) enzyme was dissolved in a mixture of 8 mM MOPS (pH 7.0), 0.2 mM EDTA and 250 μM KKSRGDYMTMQIG to prepare an enzyme solution with a final concentration of 1.7 nM. An Mg/ATP mixture of 10 mM magnesium acetate and 10 μM [γ-^33P]-ATP was used to activate the enzymatic reaction.
(§7) The compound working solutions were added to a 384-well plate, with final concentrations of 10000 nM, 3000 nM, 1000 nM, 300 nM, 100 nM, 30 nM, 10 nM, 3 nM and 1 nM, respectively, and then different enzymatic reaction solutions prepared according to the above conditions were added. The reaction solutions were incubated at room temperature for 40 min, and then 0.5% phosphoric acid solutions were added to terminate the reaction. 10 μL of the reaction solution was added dropwise to P30 filter paper which was washed 4 times with a 0.425% phosphoric acid solution and once with methanol and then placed in a scintillation counter for detection. Gray analysis was performed on the results with Image J software, and IC50 values were calculated with GraphPad 5.0 software.

Tyro-3 (h) = target: T2, Tyro-3 (h) (Homo sapiens, UniProt Q06418); assay: Enzymatic activity assay, Tyro-3 (h) kinase, [γ-33P]-ATP; type: biochemical; settings: 10 μM [γ-33P]-ATP, 40 min, room temperature; read-out: Inhibitory Activity on Tyro-3 (h), IC50
T2 construct: purchased
T2 sequence (Q06418 41-890): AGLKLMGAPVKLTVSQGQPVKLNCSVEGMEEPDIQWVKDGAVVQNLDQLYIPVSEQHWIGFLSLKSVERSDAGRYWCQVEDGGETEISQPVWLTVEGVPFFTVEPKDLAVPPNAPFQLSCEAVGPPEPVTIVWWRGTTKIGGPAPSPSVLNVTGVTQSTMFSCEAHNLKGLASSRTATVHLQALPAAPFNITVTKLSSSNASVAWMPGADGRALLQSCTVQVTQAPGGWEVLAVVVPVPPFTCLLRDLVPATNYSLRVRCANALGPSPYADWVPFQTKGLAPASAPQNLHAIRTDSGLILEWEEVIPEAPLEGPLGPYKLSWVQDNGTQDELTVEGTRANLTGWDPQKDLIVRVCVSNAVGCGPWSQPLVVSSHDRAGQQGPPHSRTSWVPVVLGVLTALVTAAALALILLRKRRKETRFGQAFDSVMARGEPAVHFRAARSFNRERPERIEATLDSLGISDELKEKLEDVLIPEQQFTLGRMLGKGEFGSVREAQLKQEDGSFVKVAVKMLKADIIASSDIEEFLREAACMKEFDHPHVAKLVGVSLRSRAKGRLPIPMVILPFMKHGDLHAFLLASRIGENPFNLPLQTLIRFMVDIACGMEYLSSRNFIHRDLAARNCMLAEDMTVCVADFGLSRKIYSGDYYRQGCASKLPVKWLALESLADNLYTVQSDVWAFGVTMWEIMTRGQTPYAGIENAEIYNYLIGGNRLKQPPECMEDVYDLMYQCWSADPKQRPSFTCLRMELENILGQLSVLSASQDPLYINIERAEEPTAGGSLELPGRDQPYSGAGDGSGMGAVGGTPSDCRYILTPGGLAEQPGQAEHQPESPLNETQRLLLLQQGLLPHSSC
Description: as §1, §2, §3, §4, §5, §6
Tyro3 (h) enzyme was dissolved in a mixture of 8 mM MOPS (pH 7.0), 0.2 mM EDTA, 1 mM MnCl2 and 250 μM KVEKIGEGTYGVVYK to prepare an enzyme solution with a final concentration of 38 nM. An Mg/ATP mixture of 10 mM magnesium acetate and 10 μM [γ-^33P]-ATP was used to activate the enzymatic reaction.
as §7

Compound | IC50 (Axl (h)) | IC50 (Tyro-3 (h))
Nc1nccc(Oc2ccc(NC(=O)c3nn(C4CC4)cc(-c4ccc(F)cc4)c3=O)nc2)c1Cl [Compound 17, N-(5-((2-amino-3-chloropyridin-4-yl)oxy)pyridin-2-yl)-1-cyclopropyl-5-(4-fluorophenyl)-4-oxo-1,4-dihydropyridazine-3-carboxamide] | 9 nM | 31 nM
C=CCn1cc(-c2ccc(F)cc2)c(=O)c(C(=O)Nc2ccc(Oc3ccnc(N)c3Cl)nc2)n1 [Compound 39, 1-allyl-N-(6-((2-amino-3-chloropyridin-4-yl)oxy)pyridin-3-yl)-5-(4-fluorophenyl)-4-oxo-1,4-dihydropyridazine-3-carboxamide] | 12 nM | 28 nM
CC(C)n1cc(-c2ccc(F)cc2)c(=O)c(C(=O)Nc2ccc(Oc3ccnc(N)c3Cl)nc2)n1 [Compound 13, N-(6-((2-amino-3-chloropyridin-4-yl)oxy)pyridin-3-yl)-5-(4-fluorophenyl)-1-isopropyl-4-oxo-1,4-dihydropyridazine-3-carboxamide] | 9 nM | 39 nM
C=CCn1cc(-c2ccc(F)cc2)c(=O)c(C(=O)Nc2ccc(Oc3ccnc(N)c3Cl)cn2)n1 [Compound 35, 1-allyl-N-(5-((2-amino-3-chloropyridin-4-yl)oxy)pyridin-2-yl)-5-(4-fluorophenyl)-4-oxo-1,4-dihydropyridazine-3-carboxamide] | 4 nM | 24 nM
CC(C)n1cc(-c2ccc(F)cc2)c(=O)c(C(=O)Nc2ccc(Oc3ccnc(N)c3Cl)cn2)n1 [Compound 11, N-(5-((2-amino-3-chloropyridin-4-yl)oxy)pyridin-2-yl)-5-(4-fluorophenyl)-1-isopropyl-4-oxo-1,4-dihydropyridazine-3-carboxamide] | 6 nM | 54 nM
Nc1nccc(Oc2cnc(NC(=O)c3nn(C4CC4)cc(-c4ccc(F)cc4)c3=O)nc2)c1Cl [Compound 18, N-(5-((2-amino-3-chloropyridin-4-yl)oxy)pyrimidin-2-yl)-5-(4-fluorophenyl)-1-cyclopropyl-4-oxo-1,4-dihydropyridazine-3-carboxamide] | 8 nM | 49 nM
CC(C)n1cc(-c2ccc(F)cc2)c(=O)c(C(=O)Nc2ncc(Oc3ccnc(N)c3Cl)cn2)n1 [Compound 12, N-(5-((2-amino-3-chloropyridin-4-yl)oxy)pyrimidin-2-yl)-5-(4-fluorophenyl)-1-isopropyl-4-oxo-1,4-dihydropyridazine-3-carboxamide] | 23 nM | 23 nM
Cn1cc(-c2ccc(F)cc2)c(=O)c(C(=O)Nc2ccc(Oc3ccnc(N)c3Cl)cn2)n1 [Compound 33, N-(5-((2-amino-3-chloropyridin-4-yl)oxy)pyridin-2-yl)-5-(4-fluorophenyl)-1-methyl-4-oxo-1,4-dihydropyridazine-3-carboxamide] | 12 nM | 23 nM
C=CCn1cc(-c2ccc(F)cc2)c(=O)c(C(=O)Nc2ncc(Oc3ccnc(N)c3Cl)cn2)n1 [Compound 37] | 9 nM | 22 nM
Nc1nccc(Oc2ccc(NC(=O)c3nn(C4CC4)cc(-c4ccc(F)cc4)c3=O)cn2)c1Cl [Compound 19, N-(6-((2-amino-3-chloropyridin-4-yl)oxy)pyridin-3-yl)-1-cyclopropyl-5-(4-fluorophenyl)-4-oxo-1,4-dihydropyridazine-3-carboxamide] | 12 nM | 73 nM
